Measurements taken from the NIST ThermoML archive (doi:10.1016/j.fluid.2006.05.032).

Assay: xn = mol fraction of the nth substance listed
Details: Liquid, Vibrating tube method

Cc1ccccc1 [toluene] + CCCO
mass density [kg/m3]
Details	x2 = 0	x2 = 0.125	x2 = 0.25	x2 = 0.375	x2 = 0.5	x2 = 0.625	x2 = 0.75	x2 = 0.875
293.15 K, 100 kPa	867.1	860.6	854.5	848.1	841.2	833.5	825.1	815.3
293.15 K, 5000 kPa	870.6	864.1	858.2	851.7	844.7	837	828.7	818.9
293.15 K, 10000 kPa	874.2	867.7	861.7	855.1	848.4	840.6	832.3	822.6
293.15 K, 15000 kPa	877.6	871.2	865.2	858.6	851.8	844.1	835.8	826.1
293.15 K, 20000 kPa	881.1	874.5	868.5	861.9	855.1	847.4	839.2	829.4
293.15 K, 25000 kPa	884.2	877.8	871.7	865.1	858.3	850.6	842.4	832.6
293.15 K, 30000 kPa	887.3	880.9	874.9	868.3	861.5	853.7	845.4	835.7
293.15 K, 35000 kPa	890.3	883.9	877.9	871.3	864.5	856.7	848.4	838.7
293.15 K, 40000 kPa	893.3	886.9	880.9	874.2	867.4	859.7	851.3	841.7
293.15 K, 45000 kPa	896.1	889.7	883.7	877.1	870.3	862.6	854.1	844.4
293.15 K, 50000 kPa	898.9	892.5	886.5	879.9	873.1	865.3	856.9	847.2
293.15 K, 55000 kPa	901.6	895.2	889.2	882.6	875.7	868	859.6	849.7
293.15 K, 60000 kPa	904.2	897.9	891.8	885.2	878.3	870.6	862.1	852.3
293.15 K, 65000 kPa	906.7	900.5	894.4	887.7	880.9	873.1	864.7	854.8
303.15 K, 100 kPa	857.5	851.1	845	838.6	832	824.4	816.1	806.6
303.15 K, 5000 kPa	861.4	855	848.9	842.4	835.9	828.3	820.1	810.6
303.15 K, 10000 kPa	865.1	858.8	852.7	846.2	839.8	832.2	824	814.3
303.15 K, 15000 kPa	869	862.4	856.4	849.9	843.4	835.8	827.8	818.3
303.15 K, 20000 kPa	872.4	866	859.9	853.4	846.9	839.4	831.3	821.7
303.15 K, 25000 kPa	875.8	869.4	863.3	856.8	850.4	842.8	834.6	825.2
303.15 K, 30000 kPa	879	872.6	866.6	860.1	853.5	846	837.7	828.3
303.15 K, 35000 kPa	882.1	875.8	869.8	863.3	856.7	849.2	840.8	831.4
303.15 K, 40000 kPa	885.2	878.9	872.8	866.4	859.7	852.3	843.9	834.4
303.15 K, 45000 kPa	888.2	881.8	875.6	869.3	862.6	855.1	846.9	837.3
303.15 K, 50000 kPa	891.1	884.8	878.5	872.2	865.5	858	849.7	840.1
303.15 K, 55000 kPa	894	887.6	881.4	875.1	868.6	860.9	852.5	843
303.15 K, 60000 kPa	896.7	890.3	884.1	877.8	871.1	863.6	855.2	845.6
303.15 K, 65000 kPa	899.2	893	886.7	880.4	873.7	866.1	857.8	848.2
313.15 K, 100 kPa	847.8	841.3	835.1	829	822.4	815.2	807.3	797.9
313.15 K, 5000 kPa	852	845.5	839.3	833.1	826.6	819.3	811.5	802.1
313.15 K, 10000 kPa	856.1	849.6	843.4	837.2	830.7	823.4	815.5	806.2
313.15 K, 15000 kPa	859.9	853.6	847.4	841.2	834.7	827.5	819.3	810
313.15 K, 20000 kPa	863.5	857.3	851.1	844.9	838.4	831.2	823	813.6
313.15 K, 25000 kPa	867.1	860.9	854.7	848.5	841.9	834.7	826.5	817.1
313.15 K, 30000 kPa	870.5	864.3	858.1	851.9	845.4	838.1	829.9	820.5
313.15 K, 35000 kPa	873.8	867.6	861.5	855.3	848.7	841.4	833.2	823.7
313.15 K, 40000 kPa	877	870.8	864.7	858.4	851.9	844.6	836.4	826.9
313.15 K, 45000 kPa	880.2	874	867.8	861.6	855	847.7	839.4	830
313.15 K, 50000 kPa	883.3	876.9	870.8	864.5	857.9	850.6	842.5	833
313.15 K, 55000 kPa	886.2	879.9	873.8	867.5	860.9	853.5	845.3	835.9
313.15 K, 60000 kPa	889	882.7	876.6	870.4	863.7	856.3	848.2	838.7
313.15 K, 65000 kPa	891.8	885.5	879.3	873.1	866.5	859.1	850.9	841.4
323.15 K, 100 kPa	838.4	831.7	825.5	819.3	812.9	805.9	798.2	789.3
323.15 K, 5000 kPa	842.7	836.2	829.9	823.8	817.3	810.3	802.6	793.6
323.15 K, 10000 kPa	847	840.5	834.3	828	821.6	814.5	806.9	797.9
323.15 K, 15000 kPa	851.1	844.5	838.4	832.2	825.8	818.7	810.9	801.8
323.15 K, 20000 kPa	855	848.5	842.3	836.1	829.7	822.6	814.8	805.7
323.15 K, 25000 kPa	858.9	852.2	846.1	839.9	833.5	826.3	818.6	809.5
323.15 K, 30000 kPa	862.5	855.9	849.7	843.5	837.1	829.9	822.2	813
